Laboratory results: patent US20170056621A1, “LOCAL ADMINISTRATION OF DRUGS FOR THE TREATMENT OF ASTHMA” (Mercator MedSystems, Inc., priority 2015, published 2017)

Legend:
porcine bronchi = assay: Toxicity and histopathological evaluation after injections in all lobes of the lungs of porcine subjects; format: in vivo
Method: Four porcine subjects were treated with two different drugs to test pharmacokinetics and toxicity in porcine bronchi. Dexamethasone was administered to 2 animals at low (1 mg/mL), medium (2 mg/mL), and high (4 mg/mL) doses. The other drug, α-1-antitrypsin (Alpha-1-antitrypsin or A1AT), was administered to the remaining animals at low (2 mg/mL), medium (10 mg/mL), and high (50 mg/mL) doses. The drugs were administered via injections in all lobes of the lungs at the varying dosages.
All animals survived until a scheduled termination and were sacrificed on day 30. All four animals had limited necropsies completed.
This group was comprised of 2 animals. Both animals received low dose treatment in the right upper and middle lung lobes, and mid dose treatment in the right lower lung lobe. One subject received high dose treatment in the left upper lung lobe. Another subject received high dose treatment in the left upper and lower lung lobes.
This group was comprised of 2 animals. Both animals received low dose treatment in the right upper and middle lung lobes, and mid dose treatment in the right lower lung lobe. One subject received high dose treatment in the left lower lung lobe, and the other received high dose treatment in the left upper lung lobe.

[1] = oral administration, cited from earlier work
bronchial walls = assay: Bronchial wall injections in a porcine subject: bronchoconstriction challenge and relief; format: in vivo; conditions: for Effect of injection into methacholine-narrowed segments (bronchodilation): 0.1 to 0.5 mL injected into narrowed bronchial segments
Method: In another animal study, one porcine subject was utilized. The animal received multiple injections in the bronchial wall of sub-selected bronchi. First injections of methacholine in concentrations of 0.3 or 3.0 mg/mL and volumes of 0.1 to 0.5 mL were made into bronchial walls throughout the airway tree.

[2] = 0.3 or 3.0 mg/mL, 0.1 to 0.5 mL into bronchial walls

Row | Molecule | Findings in bronchial or bronchiolar walls (porcine bronchi; pig, in vivo) | Gross or histopathological changes in the lung related to toxic effects (porcine bronchi; pig, in vivo) | Inflammatory cell infiltrates in lung sections (considered a background change) (porcine bronchi; pig, in vivo) | Effect of injection into methacholine-narrowed segments (bronchodilation) (bronchial walls) | further results
1 | C[C@@H]1C[C@H]2[C@@H]3CCC4=CC(=O)C=C[C@]4(C)[C@@]3(F)[C@@H](O)C[C@]2(C)[C@@]1(O)C(=O)CO [Dexamethasone] | no abnormal findings | did not induce any gross or histopathological changes | minimal multifocal inflammatory cell infiltrates | – | Histopathological examination of the lung tissues (porcine bronchi; porcine, injections in lung lobes at low, medium and high doses, sacrificed on day 30): normal lung architecture
2 | CN(Cc1cnc2nc(N)nc(N)c2n1)c1ccc(C(=O)N[C@@H](CCC(=O)O)C(=O)O)cc1 [MTX, Methotrexate] | – | – | – | – | Onset of action ([1]; patients): 4-6 weeks; Patients having some response [1]: 70%
3 | CC(C)(C)NC[C@H](O)c1ccc(O)c(CO)c1 [levalbuterol] | – | – | – | immediate bronchodilation | –
4 | CC(=O)OC(C)C[N+](C)(C)C (centres unmarked) [methacholine] | – | – | – | – | Duration of bronchoconstriction (bronchial walls; [2]): more than 30 minutes; Effect of injection on the airway (bronchoconstriction) (bronchial walls; [2]): immediate bronchoconstriction
5 | C[N+]1(C)[C@@H]2C[C@@H](OC(=O)C(O)(c3cccs3)c3cccs3)C[C@H]1[C@@H]1O[C@@H]12 [tiotropium bromide] | – | – | – | immediate bronchodilation | –
6 | α-1-antitrypsin [A1AT] | no abnormal findings | did not induce any gross or histopathological changes | minimal multifocal inflammatory cell infiltrates | – | Histopathological examination of the lung tissues (porcine bronchi; pig, in vivo): normal lung architecture
